From PMC6315541, “Nile Tilapia Derived Antimicrobial Peptide TP4 Exerts Antineoplastic Activity Through Microtubule Disruption” (Marine Drugs, 2018)

Tested on: α-Tubulin protein level in A549 cells
Experiment: Western blot of α-Tubulin protein level in A549 cells
Type: cell-based, human
Conditions: TP4 vs vehicle, Figure 2B
Protocol: To examine whether TP4 may affect microtubule dynamics, A549 cells were treated with TP4, and cytoskeletal elements were analyzed by immunocytochemistry (ICC). […] We then asked whether TP4 treatment may influence tubulin protein levels by performing Western blots on lysates from A549 cells that had been treated with vehicle or TP4. […] We next conducted a microtubule regrowth assay to further address whether TP4 may disrupt microtubule polymerization. TP4 was applied to A549 cells that had been treated with or without Nocodazole (20 μM) treatment for 6 h, which completely depolymerizes the microtubule network. The repolymerization of microtubules was then initialized by the addition of fresh recovery medium, and regrowth was analyzed by ICC.
Figure 2 TP4 disrupts the microtubule network in cancer cells. (A) Cells were stained for α-Tubulin and F-actin. Hoechst33342 was used to stain nuclei. Arrows indicate cells with negative α-Tubulin staining. Bar: 20 μm. (B) Total lysates from cells with mock (labeled C) or TP4 treatment (labeled T) were analyzed by Western blot using antibodies against GAPDH and α-Tubulin. Quantification of the α-Tubulin signal normalized to GAPDH is shown. Mr is the molecular weight. […] Bar: 20 μm (D) Quantification of the number of cells with Tubulin-positive and Tubulin-negative staining. […]

Sequence: FIHHIIGGLFSAGKAIHRLIRRRRR [TP4, synthesized Nile tilapia-derived antimicrobial peptide, Tilapia piscidin 4]
- level of α-Tubulin protein (normalized to GAPDH): not significantly affected
